Results taken from patent publication US20240254089A1, “MODULATORS OF MAS-RELATED G-PROTEIN RECEPTOR X4 AND RELATED PRODUCTS AND METHODS” (ESCIENT PHARMACEUTICALS, INC., priority 2020, published 2024).

Each molecule was assayed against T1, human MRGPR X4 (Homo sapiens, UniProt Q96LA9) (assay: MRGPR X4 antagonist activity, IP-One Gq HTRF assay in stably transfected HEK cells). Conditions: not given.
T1 construct: expressed in transfected cells
Format: cell-based
Summary of the method: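 Human MRGPR X4-expressing HEK cells, 20,000/well, were incubated with compound (10-point curve, 10 uM top, 1:3 dilutions) plus agonist (10 μM bilirubin, 20 μM deoxycholic acid or 100 μM conjugated bilirubin) in Tris/NaCl/LiCl buffer, pH 8, for 1 h at 37 °C, then 30 min at room temperature. IP-1 was read by HTRF, and IC50 was taken from the HTRF ratio.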

T1 sequence (Q96LA9 whole entry): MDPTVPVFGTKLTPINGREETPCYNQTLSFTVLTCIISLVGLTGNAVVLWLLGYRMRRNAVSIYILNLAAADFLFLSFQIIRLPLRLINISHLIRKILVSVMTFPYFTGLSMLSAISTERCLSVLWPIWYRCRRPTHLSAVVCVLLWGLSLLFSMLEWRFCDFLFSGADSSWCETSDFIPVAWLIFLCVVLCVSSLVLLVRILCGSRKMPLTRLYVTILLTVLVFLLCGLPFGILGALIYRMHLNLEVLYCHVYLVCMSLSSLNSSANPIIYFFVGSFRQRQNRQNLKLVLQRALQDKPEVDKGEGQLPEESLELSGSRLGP

Row | SMILES | IC50
1 | O=C(NCCc1cnccn1)c1nn(Cc2ccc(Cl)cc2)c2ccccc12 [Compound 348] | 1000 to 2500 nM
2 | O=C(NCCn1cccc1)c1nn(Cc2ccc(Cl)cc2)c2ccccc12 [Compound 349] | 501 to 1000 nM
3 | O=C(NCCc1cccs1)c1nn(Cc2ccc(Cl)cc2)c2ccccc12 [Compound 350] | 1000 to 2500 nM
4 | O=C(NCCN1CCOCC1)c1nn(Cc2ccc(Cl)cc2)c2ccccc12 [Compound 351] | > 2500 nM
5 | O=C(NCc1nc2ccccc2[nH]1)c1nn(Cc2ccc(Cl)cc2)c2ccccc12 [Compound 352] | 100 to 500 nM
6 | Cn1cc(CNC(=O)c2nn(Cc3ccc(Cl)cc3)c3ccccc23)cn1 [Compound 353] | > 2500 nM
7 | Cn1ccc(CNC(=O)c2nn(Cc3ccc(Cl)cc3)c3ccccc23)n1 [Compound 354] | > 2500 nM
8 | O=C(NCCCc1ccncc1)c1nn(Cc2ccc(Cl)cc2)c2ccccc12 [Compound 355] | > 2500 nM
9 | O=C(NCCc1coc2ccccc12)c1nn(Cc2ccc(Cl)cc2)c2ccccc12 [Compound 356] | 501 to 1000 nM
10 | O=C(NCCc1nc2ccccc2[nH]1)c1nn(Cc2ccc(Cl)cc2)c2ccccc12 [Compound 357] | < 100 nM
11 | O=C(NCc1ccc(-n2cccn2)cc1)c1nn(Cc2ccc(Cl)cc2)c2ccccc12 [Compound 359] | > 2500 nM
12 | O=C(NCc1cccc(F)c1F)c1nn(Cc2ccc(Cl)cc2)c2ccccc12 [Compound 360] | > 2500 nM
13 | O=C(NCCn1nnc2ccccc21)c1nn(Cc2ccc(Cl)cc2)c2ccccc12 [Compound 361] | < 100 nM
14 | Cc1cccc(CCNC(=O)c2nn(Cc3ccc(Cl)cc3)c3ccccc23)c1 [Compound 362] | 1000 to 2500 nM
15 | Cc1ccccc1CCNC(=O)c1nn(Cc2ccc(Cl)cc2)c2ccccc12 [Compound 363] | > 2500 nM
16 | COc1ccc(CCNC(=O)c2nn(Cc3ccc(Cl)cc3)c3ccccc23)cn1 [Compound 364] | 100 to 500 nM
17 | CCOc1ccc(CCNC(=O)c2nn(Cc3ccc(Cl)cc3)c3ccccc23)cc1 [Compound 365] | > 2500 nM
18 | COc1cc(CCNC(=O)c2nn(Cc3ccc(Cl)cc3)c3ccccc23)ccc1O [Compound 366] | < 100 nM
19 | Cc1ncsc1CCNC(=O)c1nn(Cc2ccc(Cl)cc2)c2ccccc12 [Compound 367] | 100 to 500 nM
20 | O=C(NCc1cn2cccnc2n1)c1nn(Cc2ccc(Cl)cc2)c2ccccc12 [Compound 368] | 100 to 500 nM
21 | O=C(NCc1ccc(-n2cccn2)nc1)c1nn(Cc2ccc(Cl)cc2)c2ccccc12 [Compound 369] | > 2500 nM
22 | O=C(NCc1cnc2ccccc2c1)c1nn(Cc2ccc(Cl)cc2)c2ccccc12 [Compound 370] | > 2500 nM
23 | O=C(NCc1ccnc2ccccc12)c1nn(Cc2ccc(Cl)cc2)c2ccccc12 [Compound 371] | > 2500 nM
24 | O=C(NCc1ccc2ncccc2c1)c1nn(Cc2ccc(Cl)cc2)c2ccccc12 [Compound 372] | > 2500 nM
25 | O=C(NCCN1CCCc2ccccc21)c1nn(Cc2ccc(Cl)cc2)c2ccccc12 [Compound 373] | 501 to 1000 nM

Row | SMILES | IC50
26 | CC(=O)Nc1ccc(CNC(=O)c2nn(Cc3ccc(Cl)cc3)c3ccccc23)cc1 [Compound 374] | > 2500 nM
27 | O=C(NCc1cncnc1)c1nn(Cc2ccc(Cl)cc2)c2ccccc12 [Compound 375] | > 2500 nM
28 | O=C(NCc1ccc(O)cc1)c1nn(Cc2ccc(Cl)cc2)c2ccccc12 [Compound 376] | 501 to 1000 nM
29 | CC(=O)Nc1cccc(CNC(=O)c2nn(Cc3ccc(Cl)cc3)c3ccccc23)c1 [Compound 377] | > 2500 nM
30 | CS(=O)(=O)c1ccc(CNC(=O)c2nn(Cc3ccc(Cl)cc3)c3ccccc23)cc1 [Compound 378] | > 2500 nM
31 | CS(=O)(=O)c1ccccc1CNC(=O)c1nn(Cc2ccc(Cl)cc2)c2ccccc12 [Compound 379] | > 2500 nM
32 | O=C(CNC(=O)c1nn(Cc2ccc(Cl)cc2)c2ccccc12)c1ccc(F)cc1F [Compound 380] | > 2500 nM
33 | O=C(NCCOc1ccccc1)c1nn(Cc2ccc(Cl)cc2)c2ccccc12 [Compound 381] | 1000 to 2500 nM
34 | O=C(CNC(=O)c1nn(Cc2ccc(Cl)cc2)c2ccccc12)c1ccc(O)cc1 [Compound 382] | 501 to 1000 nM
35 | Cc1noc(C)c1CCCNC(=O)c1nn(Cc2ccc(Cl)cc2)c2ccccc12 [Compound 383] | 1000 to 2500 nM
36 | O=C(NCCC1CCS(=O)(=O)CC1)c1nn(Cc2ccc(Cl)cc2)c2ccccc12 [Compound 385] | > 2500 nM
37 | O=C(NCc1ccnc2[nH]ccc12)c1nn(Cc2ccc(Cl)cc2)c2ccccc12 [Compound 386] | > 2500 nM
38 | O=C(NCc1cccc2[nH]ncc12)c1nn(Cc2ccc(Cl)cc2)c2ccccc12 [Compound 387] | > 2500 nM
39 | O=C(NCc1cnn2ccccc12)c1nn(Cc2ccc(Cl)cc2)c2ccccc12 [Compound 388] | > 2500 nM
40 | Cn1nc(CNC(=O)c2nn(Cc3ccc(Cl)cc3)c3ccccc23)c2cccnc21 [Compound 389] | > 2500 nM
41 | Cn1cc2ccc(CNC(=O)c3nn(Cc4ccc(Cl)cc4)c4ccccc34)cc2n1 [Compound 391] | 1000 to 2500 nM
42 | Cn1ccc(CNC(=O)c2nn(Cc3ccc(Cl)cc3)c3ccccc23)cc1=O [Compound 392] | 1000 to 2500 nM
43 | O=C(NCc1nc2ccccc2o1)c1nn(Cc2ccc(Cl)cc2)c2ccccc12 [Compound 393] | > 2500 nM
44 | O=C(NCc1cccnc1N1CCOCC1)c1nn(Cc2ccc(Cl)cc2)c2ccccc12 [Compound 395] | > 2500 nM
45 | O=C(NCCc1c[nH]c2ccc(Cl)cc12)c1nn(Cc2ccc(Cl)cc2)c2ccccc12 [Compound 396] | > 2500 nM
46 | Cn1c(CCNC(=O)c2nn(Cc3ccc(Cl)cc3)c3ccccc23)nc2ccccc21 [Compound 397] | 100 to 500 nM
47 | O=C(NCCn1cncn1)c1nn(Cc2ccc(Cl)cc2)c2ccccc12 [Compound 398] | > 2500 nM
48 | CNC(=O)c1cccc(CNC(=O)c2nn(Cc3ccc(Cl)cc3)c3ccccc23)c1 [Compound 399] | > 2500 nM
49 | O=C(NCCNC(=O)c1nn(Cc2ccc(Cl)cc2)c2ccccc12)c1ccccc1 [Compound 400] | 100 to 500 nM
50 | O=C(NCCc1nnc2ccccn12)c1nn(CCC2CCCCC2)c2ccccc12 [Compound 402, N-(2-([1,2,4]triazolo[4,3-a]pyridin-3-yl)ethyl)-1-(2-0cyclohexylethyl)-1H-indazole-3-carboxamide] | 100 to 500 nM

Row | SMILES | IC50
51 | O=C(NCCC(=O)N1CCCC1)c1nn(Cc2ccc(Cl)cc2)c2ccccc12 [Compound 403] | 100 to 500 nM
52 | N#Cc1ccc(CNC(=O)c2nn(Cc3ccc(Cl)cc3)c3ccccc23)nc1 [Compound 404] | 1000 to 2500 nM
53 | O=C(NCc1ccnnc1)c1nn(Cc2ccc(Cl)cc2)c2ccccc12 [Compound 405] | > 2500 nM
54 | N#Cc1ccc(Cn2nc(C(=O)NCCc3nnc4ccccn34)c3ccccc32)cc1 [Compound 408] | 100 to 500 nM
55 | N#Cc1ccccc1Cn1nc(C(=O)NCCc2nnc3ccccn23)c2ccccc21 [Compound 409] | 1000 to 2500 nM
56 | O=C(NCCc1nnc2ccccn12)c1nn(Cc2cc3c(cc2Cl)OCO3)c2ccccc12 [Compound 411] | < 100 nM
57 | O=C(NCCc1nnc2ccccn12)c1nn(Cc2ccc3ccccc3n2)c2ccccc12 [Compound 412] | 100 to 500 nM
58 | CC(=O)c1ccc(Cn2nc(C(=O)NCCc3nnc4ccccn34)c3ccccc32)cc1 [Compound 413] | 100 to 500 nM
59 | O=C(NCCc1nnc2ccccn12)c1nn(Cc2nnc(-c3ccccc3)o2)c2ccccc12 [Compound 414] | 100 to 500 nM
60 | CC(C)(C)c1cnc(Cn2nc(C(=O)NCCc3nnc4ccccn34)c3ccccc32)o1 [Compound 415] | 501 to 1000 nM
61 | Cc1[nH]c2ccc(O)cc2c1CCNC(=O)c1nn(Cc2ccc(Cl)cc2)c2ccccc12 [Compound 416] | < 100 nM
62 | O=C(CNC(=O)c1nn(Cc2ccc(Cl)cc2)c2ccccc12)NCC(F)F [Compound 418] | > 2500 nM
63 | O=C(NCCN1CCCCC1=O)c1nn(Cc2ccc(Cl)cc2)c2ccccc12 [Compound 419] | 100 to 500 nM
64 | Cc1noc(CCNC(=O)c2nn(Cc3ccc(Cl)cc3)c3ccccc23)n1 [Compound 420] | 1000 to 2500 nM
65 | Cc1cccn2cc(CNC(=O)c3nn(Cc4ccc(Cl)cc4)c4ccccc34)nc12 [Compound 421] | 501 to 1000 nM
66 | CC(C)c1cc(CNC(=O)c2nn(Cc3ccc(Cl)cc3)c3ccccc23)on1 [Compound 422] | > 2500 nM
67 | O=C(NCc1ccc2ccccc2n1)c1nn(Cc2ccc(Cl)cc2)c2ccccc12 [Compound 423] | > 2500 nM
68 | N#Cc1ccc2nc(CNC(=O)c3nn(Cc4ccc(Cl)cc4)c4ccccc34)cn2c1 [Compound 424] | 501 to 1000 nM
69 | O=C(NCCCn1cnc2ccccc21)c1nn(Cc2ccc(Cl)cc2)c2ccccc12 [Compound 425] | 1000 to 2500 nM
70 | O=C(NCc1ccc(-n2ccnc2)cc1)c1nn(Cc2ccc(Cl)cc2)c2ccccc12 [Compound 426] | 1000 to 2500 nM
71 | O=C(NCc1ccc2nonc2c1)c1nn(Cc2ccc(Cl)cc2)c2ccccc12 [Compound 427] | > 2500 nM
72 | Cn1cc2cccc(CNC(=O)c3nn(Cc4ccc(Cl)cc4)c4ccccc34)c2n1 [Compound 428] | > 2500 nM
73 | O=C(NCc1ncc(-c2ccccc2)[nH]1)c1nn(Cc2ccc(Cl)cc2)c2ccccc12 [Compound 429] | 501 to 1000 nM
74 | COc1ccccc1Cn1nc(C(=O)NCCc2nnc3ccccn23)c2ccccc21 [Compound 430] | > 2500 nM

Same assay, conditions: versus 20 μM deoxycholic acid agonist; HEK cells expressing human MRGPR X4; read-out: MRGPRX4 Antagonist Activity

Row | SMILES | IC50
75 | CS(=O)(=O)NCCNC(=O)c1nn(Cc2ccc(Cl)cc2)c2ccccc12 [Compound 384] | > 2500 nM
76 | O=C(NCC1CCS(=O)(=O)CC1)c1nn(Cc2ccc(Cl)cc2)c2ccccc12 [Compound 390] | > 2500 nM
77 | O=C(NCCC(=O)N1CCOCC1)c1nn(Cc2ccc(Cl)cc2)c2ccccc12 [Compound 401] | 501 to 1000 nM
78 | O=C(NCCOc1ccncc1)c1nn(Cc2ccc(Cl)cc2)c2ccccc12 [Compound 406] | 1000 to 2500 nM
79 | O=C(NCCS(=O)(=O)c1ccccc1)c1nn(Cc2ccc(Cl)cc2)c2ccccc12 [Compound 407] | 1000 to 2500 nM
80 | O=C(NCCc1nnc2ccccn12)c1nn(Cc2ccc(-c3ccccc3)cc2)c2ccccc12 [Compound 410] | > 2500 nM
